{
  "source": "paper PMC7490411",
  "about": "(Signal Transduction and Targeted Therapy, 2020)",
  "assay_in_all_cases": "KINOMEscan",
  "assay_type_in_all_cases": "binding",
  "conditions_in_all_cases": "1000 nM",
  "key": {"AAK1": {"system": "AAK1"}, "[1]": {"system": "ABL1(F317L)-nonphosphorylated"}, "ABL1-phosphorylated": {"system": "ABL1-phosphorylated"}, "ALK": {"system": "ALK"}, "BRAF(V600E)": {"system": "BRAF(V600E)"}, "CAMK4": {"system": "CAMK4"}, "CDK7": {"system": "CDK7"}, "CIT": {"system": "CIT"}, "CSK": {"system": "CSK"}, "CSNK1D": {"system": "CSNK1D"}, "CSNK2A2": {"system": "CSNK2A2"}, "DRAK1": {"system": "DRAK1"}, "EGFR(G719S)": {"system": "EGFR(G719S)"}, "EPHA1": {"system": "EPHA1"}, "EPHA6": {"system": "EPHA6"}, "EPHB1": {"system": "EPHB1"}, "ERK4": {"system": "ERK4"}, "FGFR4": {"system": "FGFR4"}, "FLT3(D835H)": {"system": "FLT3(D835H)"}, "GSK3A": {"system": "GSK3A"}, "IRAK4": {"system": "IRAK4"}, "JNK2": {"system": "JNK2"}, "KIT(D816V)": {"system": "KIT(D816V)"}, "KIT(L576P)": {"system": "KIT(L576P)"}, "LATS1": {"system": "LATS1"}, "LCK": {"system": "LCK"}, "LRRK2": {"system": "LRRK2"}, "MAP3K15": {"system": "MAP3K15"}, "MARK2": {"system": "MARK2"}, "MARK3": {"system": "MARK3"}, "MKK7": {"system": "MKK7"}, "MYO3A": {"system": "MYO3A"}, "PHKG1": {"system": "PHKG1"}, "PIK3CB": {"system": "PIK3CB"}, "PKN2": {"system": "PKN2"}, "PLK4": {"system": "PLK4"}, "PRKCE": {"system": "PRKCE"}, "PRKG1": {"system": "PRKG1"}, "RET": {"system": "RET"}, "ROCK1": {"system": "ROCK1"}, "ROS1": {"system": "ROS1"}, "[2]": {"system": "RSK3(Kin.Dom.1-N-terminal)"}, "STK33": {"system": "STK33"}, "VRK2": {"system": "VRK2"}, "WEE2": {"system": "WEE2"}, "YANK2": {"system": "YANK2"}, "YANK3": {"system": "YANK3"}, "YSK1": {"system": "YSK1"}},
  "data": [
    {"smiles": "C=CC(=O)Nc1cc(Nc2cc(-c3cccc(NC(=O)c4cc5c(s4)CCCC5)c3C)cn(C)c2=O)ccc1N1CCN(CC)CC1", "note": "[CHMFL-BTK-85]", "values": [
      {"measurement": "Percent Control", "setting": "AAK1", "result": 82, "unit": "%"},
      {"measurement": "Percent Control", "setting": "[1]", "result": 100, "unit": "%"},
      {"measurement": "Percent Control", "setting": "ABL1-phosphorylated", "result": 72, "unit": "%"},
      {"measurement": "Percent Control", "setting": "ALK", "result": 86, "unit": "%"},
      {"measurement": "Percent Control", "setting": "BRAF(V600E)", "result": 100, "unit": "%"},
      {"measurement": "Percent Control", "setting": "CAMK4", "result": 100, "unit": "%"},
      {"measurement": "Percent Control", "setting": "CDK7", "result": 96, "unit": "%"},
      {"measurement": "Percent Control", "setting": "CIT", "result": 95, "unit": "%"},
      {"measurement": "Percent Control", "setting": "CSK", "result": 80, "unit": "%"},
      {"measurement": "Percent Control", "setting": "CSNK1D", "result": 82, "unit": "%"},
      {"measurement": "Percent Control", "setting": "CSNK2A2", "result": 98, "unit": "%"},
      {"measurement": "Percent Control", "setting": "DRAK1", "result": 97, "unit": "%"},
      {"measurement": "Percent Control", "setting": "EGFR(G719S)", "result": 88, "unit": "%"},
      {"measurement": "Percent Control", "setting": "EPHA1", "result": 90, "unit": "%"},
      {"measurement": "Percent Control", "setting": "EPHA6", "result": 100, "unit": "%"},
      {"measurement": "Percent Control", "setting": "EPHB1", "result": 100, "unit": "%"},
      {"measurement": "Percent Control", "setting": "ERK4", "result": 100, "unit": "%"},
      {"measurement": "Percent Control", "setting": "FGFR4", "result": 92, "unit": "%"},
      {"measurement": "Percent Control", "setting": "FLT3(D835H)", "result": 100, "unit": "%"},
      {"measurement": "Percent Control", "setting": "GSK3A", "result": 94, "unit": "%"},
      {"measurement": "Percent Control", "setting": "IRAK4", "result": 100, "unit": "%"},
      {"measurement": "Percent Control", "setting": "JNK2", "result": 100, "unit": "%"},
      {"measurement": "Percent Control", "setting": "KIT(D816V)", "result": 71, "unit": "%"},
      {"measurement": "Percent Control", "setting": "KIT(L576P)", "result": 79, "unit": "%"},
      {"measurement": "Percent Control", "setting": "LATS1", "result": 100, "unit": "%"},
      {"measurement": "Percent Control", "setting": "LCK", "result": 86, "unit": "%"},
      {"measurement": "Percent Control", "setting": "LRRK2", "result": 100, "unit": "%"},
      {"measurement": "Percent Control", "setting": "MAP3K15", "result": 96, "unit": "%"},
      {"measurement": "Percent Control", "setting": "MARK2", "result": 91, "unit": "%"},
      {"measurement": "Percent Control", "setting": "MARK3", "result": 100, "unit": "%"},
      {"measurement": "Percent Control", "setting": "MKK7", "result": 99, "unit": "%"},
      {"measurement": "Percent Control", "setting": "MYO3A", "result": 93, "unit": "%"},
      {"measurement": "Percent Control", "setting": "PHKG1", "result": 94, "unit": "%"},
      {"measurement": "Percent Control", "setting": "PIK3CB", "result": 94, "unit": "%"},
      {"measurement": "Percent Control", "setting": "PKN2", "result": 81, "unit": "%"},
      {"measurement": "Percent Control", "setting": "PLK4", "result": 97, "unit": "%"},
      {"measurement": "Percent Control", "setting": "PRKCE", "result": 93, "unit": "%"},
      {"measurement": "Percent Control", "setting": "PRKG1", "result": 93, "unit": "%"},
      {"measurement": "Percent Control", "setting": "RET", "result": 100, "unit": "%"},
      {"measurement": "Percent Control", "setting": "ROCK1", "result": 100, "unit": "%"},
      {"measurement": "Percent Control", "setting": "ROS1", "result": 98, "unit": "%"},
      {"measurement": "Percent Control", "setting": "[2]", "result": 85, "unit": "%"},
      {"measurement": "Percent Control", "setting": "STK33", "result": 90, "unit": "%"},
      {"measurement": "Percent Control", "setting": "VRK2", "result": 94, "unit": "%"},
      {"measurement": "Percent Control", "setting": "WEE2", "result": 96, "unit": "%"},
      {"measurement": "Percent Control", "setting": "YANK2", "result": 77, "unit": "%"},
      {"measurement": "Percent Control", "setting": "YANK3", "result": 89, "unit": "%"},
      {"measurement": "Percent Control", "setting": "YSK1", "result": 80, "unit": "%"}
    ]}
  ]
}
